This is an account of results in patent publication US10233173B2, “Substituted 1,2,3-triazoles as NR2B-selective NMDA modulators” (JANSSEN PHARMACEUTICA NV, priority 2016, dated 2019).

Some results are limits rather than exact numbers.

Chain of human GluN1/GluN2B NMDA receptors (Q13224 27-1484, other chains not shown): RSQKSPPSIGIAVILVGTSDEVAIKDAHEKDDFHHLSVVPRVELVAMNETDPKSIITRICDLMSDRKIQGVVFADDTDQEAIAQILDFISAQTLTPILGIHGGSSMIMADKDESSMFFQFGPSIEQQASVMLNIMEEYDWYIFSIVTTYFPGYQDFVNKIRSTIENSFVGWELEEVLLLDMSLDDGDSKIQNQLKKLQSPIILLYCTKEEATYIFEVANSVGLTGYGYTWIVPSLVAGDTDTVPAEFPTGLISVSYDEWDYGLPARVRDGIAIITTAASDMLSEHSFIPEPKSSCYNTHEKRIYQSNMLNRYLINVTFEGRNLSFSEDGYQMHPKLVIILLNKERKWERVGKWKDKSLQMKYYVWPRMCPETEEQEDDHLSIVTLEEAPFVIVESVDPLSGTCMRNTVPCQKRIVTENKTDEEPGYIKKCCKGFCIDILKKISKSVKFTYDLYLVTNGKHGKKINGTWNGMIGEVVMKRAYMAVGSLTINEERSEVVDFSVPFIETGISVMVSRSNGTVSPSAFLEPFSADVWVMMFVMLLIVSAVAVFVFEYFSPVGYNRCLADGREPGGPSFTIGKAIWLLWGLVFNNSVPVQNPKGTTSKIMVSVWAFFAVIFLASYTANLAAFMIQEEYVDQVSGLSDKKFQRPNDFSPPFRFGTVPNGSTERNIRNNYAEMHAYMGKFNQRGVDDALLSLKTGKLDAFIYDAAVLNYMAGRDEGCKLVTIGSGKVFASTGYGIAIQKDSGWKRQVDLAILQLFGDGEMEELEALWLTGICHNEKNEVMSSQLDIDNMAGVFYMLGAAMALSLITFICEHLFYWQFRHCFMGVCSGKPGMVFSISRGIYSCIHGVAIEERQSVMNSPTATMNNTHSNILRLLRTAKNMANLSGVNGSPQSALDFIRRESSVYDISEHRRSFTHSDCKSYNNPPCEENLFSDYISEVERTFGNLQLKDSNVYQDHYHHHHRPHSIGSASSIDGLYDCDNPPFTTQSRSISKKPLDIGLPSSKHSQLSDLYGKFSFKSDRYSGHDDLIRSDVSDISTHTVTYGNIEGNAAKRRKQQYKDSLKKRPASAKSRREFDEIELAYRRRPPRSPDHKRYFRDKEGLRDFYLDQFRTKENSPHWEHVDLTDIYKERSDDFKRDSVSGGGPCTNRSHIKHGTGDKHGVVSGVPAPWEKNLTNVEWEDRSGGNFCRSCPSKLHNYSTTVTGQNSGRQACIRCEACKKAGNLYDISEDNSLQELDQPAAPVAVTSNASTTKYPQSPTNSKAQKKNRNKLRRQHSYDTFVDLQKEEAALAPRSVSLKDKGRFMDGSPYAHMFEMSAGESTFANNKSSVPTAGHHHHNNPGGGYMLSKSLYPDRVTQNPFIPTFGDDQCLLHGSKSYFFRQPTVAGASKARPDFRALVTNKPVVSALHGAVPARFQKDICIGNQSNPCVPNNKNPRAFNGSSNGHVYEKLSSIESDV

This test concerns the target human GluN1/GluN2B NMDA receptors (Homo sapiens, UniProt Q05586+Q13224). The test is described as follows: Cell-based calcium flux (FLIPR) assay on cloned human NR1/NR2B ion channels expressed in mammalian cells. The following applies: standard assay; human GluN1/GluN2B, calcium flux (FLIPR), glutamate ~EC80. Summed up: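 Calcium influx followed by FLIPR fluorescence after 5 min compound exposure and a further 5 min co-agonist challenge: 10 μM glycine with glutamate at ~EC80 (standard) or EC40 (HTS).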
For the compound `CCc1cnc(NCc2cn(-c3ccc(F)c(C(C)(F)F)c3)nn2)nc1` [Example 207, N-[[1-[3-(1,1-Difluoroethyl)-4-fluoro-phenyl]triazol-4-yl]methyl]-5-ethyl-pyrimidin-2-amine], the IC50 – broadly, the concentration needed to halve the response being measured – worked out at 0.128 µM.
With `CC(C)c1cnc(NCc2cn(-c3ccc(F)c(C(C)(F)F)c3)nn2)nc1` [Example 208, N-[[1-[3-(1,1-Difluoroethyl)-4-fluoro-phenyl]triazol-4-yl]methyl]-5-isopropyl-pyrimidin-2-amine], the IC50 was determined as 0.581 µM.
`CC(F)(F)c1cc(-n2cc(CNc3ncc(C4CC4)cn3)nn2)ccc1F` [Example 209, 5-Cyclopropyl-N-[[1-[3-(1,1-difluoroethyl)-4-fluoro-phenyl]triazol-4-yl]methyl]pyrimidin-2-amine]: the IC50 was 0.104 µM.
With `Cc1cnc(NCc2cn(-c3ccc(F)c(C(C)(F)F)c3)nn2)nc1C` [Example 210, N-[[1-[3-(1,1-Difluoroethyl)-4-fluoro-phenyl]triazol-4-yl]methyl]-4,5-dimethyl-pyrimidin-2-amine], the IC50 came to 0.05 µM.
As for `Cc1cnc(NCc2cn(-c3ccc(F)c(C(F)F)c3)nn2)nc1` [Example 211, N-[[1-[3-(Difluoromethyl)-4-fluoro-phenyl]triazol-4-yl]methyl]-5-methyl-pyrimidin-2-amine], the figure is 0.049 µM; as for `Fc1ccc(-n2cc(CNc3ncc(Cl)cn3)nn2)cc1C(F)F` [Example 212, 5-Chloro-N-[[1-[3-(difluoromethyl)-4-fluoro-phenyl]triazol-4-yl]methyl]pyrimidin-2-amine], 0.074 µM.
As to `Fc1ccc(-n2cc(CNc3ncc(C(F)(F)F)cn3)nn2)cc1C(F)F` [Example 213, N-[[1-[3-(Difluoromethyl)-4-fluoro-phenyl]triazol-4-yl]methyl]-5-(trifluoromethyl)pyrimidin-2-amine], the IC50 is 0.108 µM.
Consider `CC(C)(O)c1cnc(NCc2cn(-c3ccc(F)c(C(F)F)c3)nn2)nc1` [Example 214, 2-[2-[[1-[3-(Difluoromethyl)-4-fluoro-phenyl]triazol-4-yl]methylamino]pyrimidin-5-yl]propan-2-ol], for which the IC50 stood at 0.654 µM.
`Fc1ccc(-n2cc(CNc3ccccn3)nn2)cc1C(F)F` [Example 215, N-((1-(3-(Difluoromethyl)-4-fluorophenyl)-1H-1,2,3-triazol-4-yl)methyl)pyridin-2-amine]: the IC50 stood at 0.986 µM.
As for `CCc1cnc(NCc2cn(-c3ccc(F)c(C(F)F)c3)nn2)nc1` [Example 216, N-((1-(3-(Difluoromethyl)-4-fluorophenyl)-1H-1,2,3-triazol-4-yl)methyl)-5-ethylpyrimidin-2-amine], the figure is 0.026 µM; as for `Cc1cnc(NCc2cn(-c3ccc(F)c(C(F)F)c3)nn2)nc1C` [Example 217, N-((1-(3-(Difluoromethyl)-4-fluorophenyl)-1H-1,2,3-triazol-4-yl)methyl)-4,5-dimethylpyrimidin-2-amine], 0.012 µM.
For `Cc1nc(NCc2cn(-c3ccc(F)c(C(F)F)c3)nn2)ncc1Cl` [Example 218, 5-Chloro-N-((1-(3-(difluoromethyl)-4-fluorophenyl)-1H-1,2,3-triazol-4-yl)methyl)-4-methylpyrimidin-2-amine] the value was 0.011 µM; for `Cn1nccc1NCc1cn(-c2ccc(F)c(C(F)F)c2)nn1` [Example 219, N-((1-(3-(Difluoromethyl)-4-fluorophenyl)-1H-1,2,3-triazol-4-yl)methyl)-1-methyl-1H-pyrazol-5-amine], > 10 µM; for `Cn1ccnc1NCc1cn(-c2ccc(F)c(C(F)F)c2)nn1` [Example 220, N-((1-(3-(Difluoromethyl)-4-fluorophenyl)-1H-1,2,3-triazol-4-yl)methyl)-1-methyl-1H-imidazol-2-amine], 3.65 µM.
As to `Fc1ccc(-n2cc(CNc3ccccn3)nn2)cc1OC(F)F` [Example 221, N-((1-(3-(Difluoromethoxy)-4-fluorophenyl)-1H-1,2,3-triazol-4-yl)methyl)pyridin-2-amine], the IC50 was 0.724 µM.
For the compound `Cc1cnc(NCc2cn(-c3ccc(F)c(OC(F)F)c3)nn2)nc1` [Example 222, N-((1-(3-(Difluoromethoxy)-4-fluorophenyl)-1H-1,2,3-triazol-4-yl)methyl)-5-methylpyrimidin-2-amine], the IC50 was 0.064 µM.
Regarding `Cn1nccc1NCc1cn(-c2ccc(F)c(OC(F)F)c2)nn1` [Example 223, N-((1-(3-(Difluoromethoxy)-4-fluorophenyl)-1H-1,2,3-triazol-4-yl)methyl)-1-methyl-1H-pyrazol-5-amine], the IC50 amounted to 11.8 µM.
Take `Cc1cnc(N[C@H](C)c2cn(-c3ccc(Cl)c(OC(F)F)c3)nn2)nc1` [Example 224, N-[(1R)-1-[1-[4-Chloro-3-(difluoromethoxy)phenyl]triazol-4-yl]ethyl]-5-methyl-pyrimidin-2-amine]: the half-maximal inhibitory concentration (IC50) came out at 0.121 µM.
Take `Clc1ccc(-n2cc(COc3ncc(Cl)cn3)nn2)cc1` [Example 225, 5-Chloro-2-[[1-(4-chlorophenyl)triazol-4-yl]methoxy]pyrimidine]: the IC50 came to 0.07 µM.
As for `FC(F)(F)c1cnc(OCc2cn(-c3ccc(Cl)cc3)nn2)nc1` [Example 226, 2-[[1-(4-Chlorophenyl)triazol-4-yl]methoxy]-5-(trifluoromethyl)pyrimidine], the figure is 0.155 µM.
On to `FC(F)Oc1cnc(OCc2cn(-c3ccc(Cl)cc3)nn2)nc1` [Example 227, 2-[[1-(4-Chlorophenyl)triazol-4-yl]methoxy]-5-(difluoromethoxy)pyrimidine], for which the IC50 is 0.151 µM.
For the compound `Fc1cccc(-n2cc(COc3ncccn3)nn2)c1` [Example 228, 2-[[1-(3-Fluorophenyl)triazol-4-yl]methoxy]pyrimidine], the IC50 was determined as 5.65 µM.
For `Fc1cnc(OCc2cn(-c3cccc(F)c3)nn2)nc1` [Example 229, 5-Fluoro-2-[[1-(3-fluorophenyl)triazol-4-yl]methoxy]pyrimidine] the value was 2.98 µM; for `COc1cnc(OCc2cn(-c3cccc(F)c3)nn2)nc1` [Example 230, 2-[[1-(3-Fluorophenyl)triazol-4-yl]methoxy]-5-methoxy-pyrimidine], 0.275 µM; for `Fc1cccc(-n2cc(COc3ncc(Cl)cn3)nn2)c1` [Example 231, 5-Chloro-2-[[1-(3-fluorophenyl)triazol-4-yl]methoxy]pyrimidine], 0.389 µM.
For the compound `Cc1cnc(OCc2cn(-c3cccc(F)c3)nn2)nc1` [Example 232, 2-[[1-(3-Fluorophenyl)triazol-4-yl]methoxy]-5-methyl-pyrimidine], the IC50 was 0.205 µM.
Consider `CCc1cnc(OCc2cn(-c3cccc(F)c3)nn2)nc1` [Example 233, 5-Ethyl-2-[[1-(3-fluorophenyl)triazol-4-yl]methoxy]pyrimidine], for which the IC50 turned out to be 0.075 µM.
In the case of `Cc1cnc(OCc2cn(-c3cccc(Br)c3)nn2)nc1` [Example 234, 2-[[1-(3-Bromophenyl)triazol-4-yl]methoxy]-5-methyl-pyrimidine], the IC50 worked out at 0.022 µM.
With `Cc1ccccc1-n1cc(COc2ncccn2)nn1` [Example 236, 2-[[1-(o-Tolyl)triazol-4-yl]methoxy]pyrimidine], the IC50 was > 10 µM.
For the compound `Cc1ccccc1-n1cc(COc2ncc(F)cn2)nn1` [Example 237, 5-Fluoro-2-[[1-(o-tolyl)triazol-4-yl]methoxy]pyrimidine], the IC50 was 16.6 µM.
For `COc1cnc(OCc2cn(-c3ccccc3C)nn2)nc1` [Example 238, 5-Methoxy-2-[[1-(o-tolyl)triazol-4-yl]methoxy]pyrimidine] the value was 5.99 µM; for `Cc1ccccc1-n1cc(COc2ncc(Cl)cn2)nn1` [Example 239, 5-Chloro-2-[[1-(o-tolyl)triazol-4-yl]methoxy]pyrimidine], 4.8 µM; for `Cc1cnc(OCc2cn(-c3ccccc3C)nn2)nc1` [Example 240, 5-Methyl-2-[[1-(o-tolyl)triazol-4-yl]methoxy]pyrimidine], 5.58 µM.
With `CCc1cnc(OCc2cn(-c3ccccc3C)nn2)nc1` [Example 241, 5-Ethyl-2-[[1-(o-tolyl)triazol-4-yl]methoxy]pyrimidine], the IC50 stood at 1.46 µM.
For the compound `Cc1cccc(-n2cc(COc3ncccn3)nn2)c1` [Example 242, 2-[[1-(m-Tolyl)triazol-4-yl]methoxy]pyrimidine], the IC50 was 0.647 µM.
Regarding `Cc1cnc(OCc2cn(-c3cccc(C)c3)nn2)nc1` [Example 243, 5-Methyl-2-[[1-(m-tolyl)triazol-4-yl]methoxy]pyrimidine], the IC50 stood at 0.014 µM.
As for `Cc1cccc(-n2cc(COc3nccc(C)n3)nn2)c1` [Example 244, 4-Methyl-2-[[1-(m-tolyl)triazol-4-yl]methoxy]pyrimidine], the figure is 0.191 µM.
Take `CCc1cnc(OCc2cn(-c3cccc(C)c3)nn2)nc1` [Example 245, 5-Ethyl-2-[[1-(m-tolyl)triazol-4-yl]methoxy]pyrimidine]: the IC50 stood at 0.01 µM.
For `Cc1cccc(-n2cc(COc3ncc(Cl)cn3)nn2)c1` [Example 246, 5-Chloro-2-[[1-(m-tolyl)triazol-4-yl]methoxy]pyrimidine], the IC50 was 0.033 µM.
With `Cc1cccc(-n2cc(COc3ncc(F)cn3)nn2)c1` [Example 247, 5-Fluoro-2-[[1-(m-tolyl)triazol-4-yl]methoxy]pyrimidine], the half-maximal inhibitory concentration (IC50) worked out at 0.34 µM.
With `COc1cnc(OCc2cn(-c3cccc(C)c3)nn2)nc1` [Example 248, 5-Methoxy-2-[[1-(m-tolyl)triazol-4-yl]methoxy]pyrimidine], the IC50 worked out at 0.009 µM.
As to `Cc1cccc(-n2cc(COc3ncc(C(C)(C)O)cn3)nn2)c1` [Example 249, 2-[2-[[1-(m-Tolyl)triazol-4-yl]methoxy]pyrimidin-5-yl]propan-2-ol], the IC50 was determined as 0.289 µM.
For `COCc1ccnc(OCc2cn(-c3cccc(C)c3)nn2)n1` [Example 250, 4-(Methoxymethyl)-2-[[1-(m-tolyl)triazol-4-yl]methoxy]pyrimidine] the value was 0.249 µM.
Turning to `Cc1cccc(-n2cc(COc3ncc(C)c(C)n3)nn2)c1` [Example 251, 4,5-Dimethyl-2-[[1-(m-tolyl)triazol-4-yl]methoxy]pyrimidine], the IC50 was 0.002 µM.
